Test results: patent publication US20180153995A1, “USE OF ANTIMICROBIAL POLYMERS FOR RE-SENSITIZATION OF MICROORGANISMS UPON EMERGENCE OF RESISTANCE TO ANTI-MICROBIAL AGENTS” (Technion Research & Development Foundation Limited, priority 2008, published 2018)
Like-named read-outs stand apart in the source and are kept apart here.

Columns and labels:
[1] = tested on: E. coli K-12 efflux knockout mutant; format: cell-based, Escherichia coli; conditions: E. coli AG100A (efflux−)
Method in brief: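 Broth microdilution, inocula 10^5 bacteria/ml, 24 h at 37 °C. Growth read as OD620 against calibration standards.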

S. aureus 43300 [2] = assay: Antibiotic MIC by microdilution with or without sub-MIC polymer; format: cell-based, Staphylococcus aureus
E. coli 14384 = assay: as above; format: cell-based, Escherichia coli; conditions: E. coli 14384
Method in brief: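 Optical density at 620 nm, calibrated against standards, measured growth inhibition after 24 hours at 37° C. Inocula were 10^5 bacteria per ml, and antibiotic was serially diluted 2-fold with or without […].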

E. coli 16327 = assay: microbe, parasite or virus in culture; conditions: for Antibiotic MIC: E. coli 16327
S. maltophila 748 = assay: Antibiotic MIC by microdilution with or without sub-MIC polymer; format: cell-based, Stenotrophomonas maltophila
E. coli 14182 = assay: as above; format: cell-based, Escherichia coli; conditions: polymer at ½ of its MIC
S. aureus 43300 [3] = assay: as above; format: cell-based, Staphylococcus aureus; remark: listed apart in the source
[4] = tested on: E. coli K-12 resistant wild type; format: cell-based, Escherichia coli; conditions: E. coli AG100 (w.t.)
S. aureus 15819 = assay: Antibiotic MIC by microdilution with or without sub-MIC polymer; format: cell-based, Staphylococcus aureus; conditions: S. aureus 15819
MRSA 15903 = assay: microbe, parasite or virus in culture; format: cell-based, Staphylococcus aureus
Method in brief: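 Values are FIC indexes, summing each agent's MIC in combination divided by its MIC alone, for MRSA 15903. Interpretation: <0.5 clear re-sensitization, 0.5 to 4 marginal or none, >4 antagonistic.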

[5] = polymer at ¼ of its MIC (Table 16)
[6] = polymer at ½ of its MIC (Table 16)
[7] = polymer at ⅓ of its MIC (Table 16)
[8] = the OAK at ¼ of its MIC (Table 17)
[9] = the OAK at ½ of its MIC (Table 17)
[10] = the OAK at ⅓ of its MIC (Table 17)
[11] = +¼ MIC (1.6 μM) C16(9-ene)KKNC12KNH2
[12] = +½ MIC (3.12 μM) C16(9-ene)KKNC12KNH2
[13] = +⅓ MIC (2.1 μM) C16(9-ene)KKNC12KNH2
[14] = +¼ MIC (1.6 μM) C14(9-ene)KKNC12KNH2
[15] = +½ MIC (3.12 μM) C14(9-ene)KKNC12KNH2
[16] = +⅓ MIC (2.1 μM) C14(9-ene)KKNC12KNH2
[17] = +¼ MIC (1.6 μM) C12K(KNC12K)3NH2
[18] = +½ MIC (3.12 μM) C12K(KNC12K)3NH2
[19] = +⅓ MIC (2.1 μM) C12K(KNC12K)3NH2

gentamicin
4 µg/mL: Antibiotic MIC in presence of C12K(NC8K)7NH2 (SEQ ID NO: 4), +¼ MIC [1, 5] | Antibiotic MIC in presence of C12K(NC8K)7NH2 (SEQ ID NO: 4), +⅓ MIC [1, 7] | Antibiotic MIC in presence of the OAK, +¼ MIC [1, 8] | Antibiotic MIC in presence of the OAK, +½ MIC [1, 9] | Antibiotic MIC in presence of the OAK, +⅓ MIC [1, 10] | Antibiotic MIC (E. coli 14384; [14]) | Antibiotic MIC (E. coli 14384; [16]) | Antibiotic MIC, None (E. coli 14384; antibiotic alone (Table 15)) | Antibiotic MIC (E. coli 14384; no polymer (None), Table 9) | Antibiotic MIC (E. coli 14384; no polymer (None), Table 14) | Antibiotic MIC in presence of C12K(NC8K)7NH2 (SEQ ID NO: 4), +¼ MIC (E. coli 14384; polymer at ¼ of its MIC) | Antibiotic MIC (E. coli 16327; [14]) | Antibiotic MIC (E. coli 16327; [11]) | Antibiotic MIC (E. coli 16327; +½ MIC (3.12 μM) C12K(KNC12K)2NH2) | Antibiotic MIC (E. coli 16327; [12]) | Antibiotic MIC (E. coli 16327; [16]) | Antibiotic MIC (E. coli 16327; [13]) | Antibiotic MIC (E. coli 16327; no polymer (None), Table 9) | Antibiotic MIC (E. coli 16327; no polymer (None), Table 10) | MIC, Alone (E. coli 16327; E. coli U16327, antibiotic alone (Table 22)) | MIC, ¼ + MIC OAK (E. coli 16327; E. coli U16327, with C12K(KNC10K)3NH2 (SEQ ID NO: 10) at ¼ of its MIC) | MIC, ⅓ + MIC OAK (E. coli 16327; E. coli U16327, with C12K(KNC10K)3NH2 (SEQ ID NO: 10) at ⅓ of its MIC) | Antibiotic MIC, None (E. coli 16327; E. coli U-16327, antibiotic alone (Table 15)) | Antibiotic MIC in presence of C12K(NC8K)7NH2 (SEQ ID NO: 4), +¼ MIC (E. coli 16327; E. coli U-16327, polymer at ¼ of its MIC) | Antibiotic MIC in presence of C12K(NC8K)7NH2 (SEQ ID NO: 4), +¼ MIC [4, 5] | Antibiotic MIC in presence of C12K(NC8K)7NH2 (SEQ ID NO: 4), +⅓ MIC [4, 7] | Antibiotic MIC in presence of the OAK, +¼ MIC [4, 8] | Antibiotic MIC in presence of the OAK, +½ MIC [4, 9] | Antibiotic MIC in presence of the OAK, +⅓ MIC [4, 10]
2 µg/mL: Antibiotic MIC (E. coli 14384; [15]) | Antibiotic MIC in presence of C12K(NC8K)7NH2 (SEQ ID NO: 4), +½ MIC (E. coli 14384; polymer at ½ of its MIC) | Antibiotic MIC (E. coli 16327; [15]) | Antibiotic MIC in presence of C12K(NC8K)7NH2 (SEQ ID NO: 4), +⅓ MIC (E. coli 16327; E. coli U-16327, polymer at ⅓ of its MIC) | Antibiotic MIC in presence of C12K(NC8K)7NH2 (SEQ ID NO: 4), +½ MIC [4, 6]
16 µg/mL: Antibiotic MIC (S. maltophila 748; [17]) | Antibiotic MIC (S. maltophila 748; [19]) | Antibiotic MIC (S. maltophila 748; no polymer (None), Table 13)
64 to 128 µg/mL: Antibiotic MIC in presence of C12K(NC8K)7NH2 (SEQ ID NO: 4), +½ MIC (E. coli 14182) | Antibiotic MIC (S. aureus 43300 [3]; [14]) | Antibiotic MIC (S. aureus 43300 [3]; [15]) | Antibiotic MIC (S. aureus 43300 [3]; [16]) | Antibiotic MIC (S. aureus 43300 [3]; no polymer (None), Table 9)
0.5 µg/mL: Antibiotic MIC (S. aureus 15819; [18])
64 µg/mL: Antibiotic MIC (S. aureus 43300 [2]; [11]) | Antibiotic MIC (S. aureus 43300 [2]; [13]) | Antibiotic MIC (S. aureus 43300 [3]; no polymer (None), Table 10)
8 µg/mL: Antibiotic MIC (E. coli 16327; +¼ MIC (1.6 μM) C12K(KNC12K)2NH2) | Antibiotic MIC (E. coli 16327; +⅓ MIC (2.1 μM) C12K(KNC12K)2NH2) | Antibiotic MIC (E. coli 16327; no polymer (None), Table 12) | Antibiotic MIC (S. maltophila 748; [18])
32 to 64 µg/mL: Antibiotic MIC (S. aureus 43300 [2]; [12])
4 to 8 µg/mL: Antibiotic MIC, None ([1]; antibiotic alone (Table 16)) | Antibiotic MIC, None ([1]; antibiotic alone (Table 17)) | Antibiotic MIC, None ([4]; antibiotic alone (Table 16)) | Antibiotic MIC, None ([4]; antibiotic alone (Table 17))
2 to 4 µg/mL: Antibiotic MIC in presence of C12K(NC8K)7NH2 (SEQ ID NO: 4), +½ MIC [1, 6] | Antibiotic MIC in presence of C12K(NC8K)7NH2 (SEQ ID NO: 4), +⅓ MIC (E. coli 14384; polymer at ⅓ of its MIC) | MIC, ½ + MIC OAK (E. coli 16327; E. coli U16327, with C12K(KNC10K)3NH2 (SEQ ID NO: 10) at ½ of its MIC)
1 µg/mL: Antibiotic MIC (S. aureus 15819; +¼ MIC (1.6 μM) C12(5-ene)KKNC12KNH2) | Antibiotic MIC (S. aureus 15819; [17]) | Antibiotic MIC (S. aureus 15819; +¼ MIC (1.6 μM) C12KKNC12KNH2) | Antibiotic MIC (S. aureus 15819; +½ MIC (3.12 μM) C12(5-ene)KKNC12KNH2) | Antibiotic MIC (S. aureus 15819; +½ MIC (3.12 μM) C12KKNC12KNH2) | Antibiotic MIC (S. aureus 15819; +⅓ MIC (2.1 μM) C12(5-ene)KKNC12KNH2) | Antibiotic MIC (S. aureus 15819; [19]) | Antibiotic MIC (S. aureus 15819; +⅓ MIC (2.1 μM) C12KKNC12KNH2) | Antibiotic MIC (S. aureus 15819; no polymer (None), Table 8) | Antibiotic MIC (S. aureus 15819; no polymer (None), Table 11) | Antibiotic MIC (S. aureus 15819; no polymer (None), Table 13)
1 to 2 µg/mL: Antibiotic MIC (E. coli 14384; +½ MIC C12K(NC8K)5NH2) | Antibiotic MIC in presence of C12K(NC8K)7NH2 (SEQ ID NO: 4), +½ MIC (E. coli 16327; E. coli U-16327, polymer at ½ of its MIC)
128 µg/mL: MIC (MRSA 15903; MRSA 15903, +¼ polymer MIC (1.6 μM) NC12(KNC12K)2NH2) | MIC (MRSA 15903; MRSA 15903, +½ polymer MIC (3.1 μM) NC12(KNC12K)2NH2) | MIC (MRSA 15903; MRSA 15903, +⅓ polymer MIC (2.1 μM) NC12(KNC12K)2NH2) | MIC (MRSA 15903; S. aureus CI-15903, +polymer (½ MIC) C12(5-ene)KKNC12KNH2) | MIC (MRSA 15903; S. aureus CI-15903, +polymer (⅓ MIC) C12(5-ene)KKNC12KNH2)
